From PubChem BioAssay AID2060606 (Molecular Pharmacology Branch, DTP, NCI, 2025)
pIC50: −log10 of the molar value. “And” between values parts separate entries of the source, which are not always exact repeats. Equal values may be shown once.

Tested on: 922993-354-T-J3-PDC complex spheroids, viability, % test/control
Test: Anticancer human tumor 922993-354-T-J3-PDC patient-derived endometrial carcinoma cell line growth inhibition [CLK]
Settings: for viability, T/C: stronger effect = lower value
From the text: A high-throughput screen of multi-cell type tumor spheroids was designed to identify active combinations of […] and targeted small molecules. Complex spheroids include a stromal component modeled by human endothelial cells (HUVEC) and fibroblasts modeled by human mesenchymal stem cells (MSCs). The concentration ranges selected for each drug and investigational agent were based upon clinically achievable concentrations if the clinical Cmax of the agent was known.
Compounds. The drugs and investigational agents: cirtuvivint (SM08502; NSC835563), CC-671 (NSC850746), vemurafenib (NSC761431), tapotoclax (NSC804041), sotorasib (NSC818433), adagrasib (NSC831453), MRTX-1133 (NSC836407), BAY2416964 (NSC825713), copanlisib (NSC816437), inavolisib (NSC800729), abemaciclib (NSC768073), osimertinib (NSC779217), entinostat (NSC756642), eltanexor (KPT-8602, NSC794443), venetoclax (NSC766270), ceralasertib (NSC777638), bortezomib (NSC756655), olaparib (NSC753686), talazoparib (NSC767125), alisertib (NSC759677), peposertib (NSC802822), gemcitabine (NSC613327), 5-fluorouracil (NSC19893), SN-38 (NSC673596), oxaliplatin (NSC266046), paclitaxel (NSC125973), and doxorubicin (NSC123127), were obtained from the National Cancer Institute (NCI) Developmental Therapeutics Program Chemical Repository. The FDA-approved anticancer drug set is available from the Developmental Therapeutics Program at https://dtp.cancer.gov/organization/dscb/obtaining/available plates.htm. […] The stock solutions were prepared in dimethyl sulfoxide (DMSO, Sigma-Aldrich, St. Louis, MO, cat. D2650), except for the platinum complexes which were prepared in saline (Quality Biological, Gaithersburg, MD, cat. 114-055-101), at 800-fold the tested concentration and stored at -70 degrees C prior to their use. All drugs and investigational agents were tested over a range starting from a high concentration at or near the clinical Cmax and decreasing in half-log increments. If the clinical Cmax for an agent had not been determined, the highest concentration tested was 10 microM.
Cell Culture. All cells were maintained in an incubator at 37 degrees C and 5% CO2 with 95% humidity. The PDC lines were cultured according to standard operating procedures established by the NCI PDMR. Briefly, all PDCs were thawed and cultured in Matrigel-coated flasks prepared with a working solution of 1X Ham's F-12 nutrient mix, without supplementation (Invitrogen, Waltham, MA, cat. 11765054), 100 U/mL penicillin-streptomycin (Invitrogen, cat. 15140122), and 2.5% Matrigel (Corning Inc., Corning, NY, cat. 354248) for the first three passages. The 947758-054-R-J2-PDC line was cultured in 6B/Colon 1A media, which includes advanced DMEM/F-12 (Thermo Fisher Scientific, cat. 12634028), 10 mM HEPES (Thermo Fisher Scientific, cat. 15630080), 1X GlutaMAX supplement (Thermo Fisher Scientific, cat. 35050061), 0.1 mg/mL primocin (InvivoGen, cat. ant-pm-2), 10% defined fetal bovine serum, heat inactivated (HyClone Laboratories Inc., cat. SH30070.03HI), 1.25 mM N-Acetyl-L-cysteine (Sigma-Aldrich, cat. A9165), 10 mM nicotinamide (Sigma-Aldrich, cat. N0636), 1X B-27 supplement (Thermo Fisher Scientific, cat. 17504044), 1X N-2 supplement (Thermo Fisher Scientific, cat. 17502048), and 10 microM Y-27632 dihydrochloride (Tocris Bioscience, cat. 1254). The 876862-298-R-J1-PDC was cultured in 6E media, which includes all 6B/Colon 1A media components plus 50% L-WRN conditioned media (ATCC, cat. CRL-3276), 50 ng/mL recombinant human EGF recombinant protein (hEGF; Thermo Fisher Scientific, cat. PHG0311), 10 ng/mL recombinant human fibroblast growth factor 10 (hGFG-10; PeproTech, cat. 100-26), 1 ng/mL recombinant human fibroblast growth factor 2 (hFGF-2; PeproTech, cat. 100-18B), and 1 µM prostaglandin E2 (PGE2; Tocris, cat. 2296). The 227483-062-R1-J1-PDC line was cultured in Panc media, containing all 6E components except hFGF-2, with the addition of 500 nM SB-431542 (Selleckchem, cat. S1067) and 10 nM gastrin (Tocris, cat. 3006). […]
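Further: spheroids exposed to the agents for 7 days before readout.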

**Q.** How did the pIC50 (curve of first compound, second compound 0.0316 µM) turn out when `Nc1ccn(C2OC(CO)C(O)C2(F)F)c(=O)n1` (centres undefined) + CNC(=O)c1ccc(Nc2nc(OC3CCCC3)c3c(-c4ccc5nc(C)oc5c4)c[nH]c3n2)c(OC)c1 was run?
**A.** > 7.50

**Q.** And the pIC50 (curve of first compound, second compound 0.1 µM)?
**A.** > 7.50

**Q.** What about the pIC50 (curve of first compound, second compound 0.316 µM) of the same compound?
**A.** > 7.50

**Q.** What about the pIC50 (curve of first compound, second compound 1 µM) of the same compound?
**A.** > 7.50

**Q.** What about the pIC50 (curve of first compound, second compound 3.16 µM) of the same compound?
**A.** > 7.50

**Q.** What about the pIC50 (curve of first compound, second compound 10 µM) of the same compound?
**A.** > 7.50

**Q.** What about the viability, T/C (second compound 0.0316 µM, first compound 0.0316 µM) of the same compound?
**A.** 15.7%

**Q.** What about the viability, T/C (second compound 0.0316 µM, first compound 0.1 µM) of the same compound?
**A.** 17.5%

**Q.** What about the viability, T/C (second compound 0.0316 µM, first compound 0.316 µM) of the same compound?
**A.** 18%

**Q.** What about the viability, T/C (second compound 0.0316 µM, first compound 1 µM) of the same compound?
**A.** 16.6%

**Q.** What about the viability, T/C (second compound 0.0316 µM, first compound 3.16 µM) of the same compound?
**A.** 15.5%

**Q.** And the viability, T/C (second compound 0.0316 µM, first compound 10 µM)?
**A.** 18.3%

**Q.** What about the viability, T/C (second compound 0.1 µM, first compound 0.0316 µM) of the same compound?
**A.** 17.9%

**Q.** What about the viability, T/C (second compound 0.1 µM, first compound 0.1 µM) of the same compound?
**A.** 16.2%

**Q.** And the viability, T/C (second compound 0.1 µM, first compound 0.316 µM)?
**A.** 15.7%

**Q.** And the viability, T/C (second compound 0.1 µM, first compound 1 µM)?
**A.** 14.9%

**Q.** And the viability, T/C (second compound 0.1 µM, first compound 3.16 µM)?
**A.** 12.5%

**Q.** What about the viability, T/C (second compound 0.1 µM, first compound 10 µM) of the same compound?
**A.** 17.3%

**Q.** What about the viability, T/C (second compound 0.316 µM, first compound 0.0316 µM) of the same compound?
**A.** 15.7%

**Q.** What about the viability, T/C (second compound 0.316 µM, first compound 0.1 µM) of the same compound?
**A.** 15.5%

**Q.** And the viability, T/C (second compound 0.316 µM, first compound 0.316 µM)?
**A.** 16.5%

**Q.** What about the viability, T/C (second compound 0.316 µM, first compound 1 µM) of the same compound?
**A.** 18.1%

**Q.** What about the viability, T/C (second compound 0.316 µM, first compound 3.16 µM) of the same compound?
**A.** 16.9%

**Q.** What about the viability, T/C (second compound 0.316 µM, first compound 10 µM) of the same compound?
**A.** 17.2%

**Q.** What about the viability, T/C (second compound 1 µM, first compound 0.0316 µM) of the same compound?
**A.** 14.7%

**Q.** And the viability, T/C (second compound 1 µM, first compound 0.1 µM)?
**A.** 14.6%

**Q.** And the viability, T/C (second compound 1 µM, first compound 0.316 µM)?
**A.** 12.9%

**Q.** And the viability, T/C (second compound 1 µM, first compound 1 µM)?
**A.** 13.3%

**Q.** And the viability, T/C (second compound 1 µM, first compound 3.16 µM)?
**A.** 14.8%

**Q.** And the viability, T/C (second compound 1 µM, first compound 10 µM)?
**A.** 13.2%

**Q.** And the viability, T/C (second compound 3.16 µM, first compound 0.0316 µM)?
**A.** 13.6%

**Q.** What about the viability, T/C (second compound 3.16 µM, first compound 0.1 µM) of the same compound?
**A.** 15.8%

**Q.** What about the viability, T/C (second compound 3.16 µM, first compound 0.316 µM) of the same compound?
**A.** 11.8%

**Q.** What about the viability, T/C (second compound 3.16 µM, first compound 1 µM) of the same compound?
**A.** 12.4%

**Q.** And the viability, T/C (second compound 3.16 µM, first compound 3.16 µM)?
**A.** 12.9%

**Q.** What about the viability, T/C (second compound 3.16 µM, first compound 10 µM) of the same compound?
**A.** 13.1%

**Q.** What about the viability, T/C (second compound 10 µM, first compound 0.0316 µM) of the same compound?
**A.** 13%

**Q.** And the viability, T/C (second compound 10 µM, first compound 0.1 µM)?
**A.** 12.5%

**Q.** What about the viability, T/C (second compound 10 µM, first compound 0.316 µM) of the same compound?
**A.** 10.8%

**Q.** What about the viability, T/C (second compound 10 µM, first compound 1 µM) of the same compound?
**A.** 11.6%

**Q.** What about the viability, T/C (second compound 10 µM, first compound 3.16 µM) of the same compound?
**A.** 12.7%

**Q.** And the viability, T/C (second compound 10 µM, first compound 10 µM)?
**A.** 11.4%

**Q.** `O=C(c1cc(Cc2n[nH]c(=O)c3ccccc23)ccc1F)N1CCN(C(=O)C2CC2)CC1` was tested. Which viability, T/C (compound 0.0316 µM) did it give?
**A.** 81.9% and 98.5%

**Q.** What about the viability, T/C (compound 0.1 µM) of the same compound?
**A.** 91.4% and 88.5%

**Q.** What about the viability, T/C (compound 0.316 µM) of the same compound?
**A.** 85.5% and 102%

**Q.** What about the viability, T/C (compound 1 µM) of the same compound?
**A.** 93% and 118%

**Q.** What about the viability, T/C (compound 3.16 µM) of the same compound?
**A.** 96.8% and 107%

**Q.** What about the viability, T/C (compound 10 µM) of the same compound?
**A.** 83.2% and 100%

**Q.** What about the pIC50 (curve of compound) of the same compound?
**A.** < 5.00
